# Assay: Phase 1b safety and tolerability of HBI-8000 combined with nivolumab (DLTs, TEAEs)
# Format: in vivo
# Details: for Dose-limiting toxicity (DLT): + nivolumab, 28 days
# Method: The present example, was a Phase Ib/2 open-label dose finding study for HBI-8000 (also referred to in the art as “chidamide” or “tucidinostat” and also referred to herein as a compound of formula I) in combination with nivolumab in patients with advanced solid tumors, including melanoma, RCC (renal cell carcinoma), and NSCLC (non-small cell lung cancer). This study was conducted in accordance with Good Clinical Practice guidelines and the Declaration of Helsinki and with assurance/approval from the US Department of Health and Human Services; the protocol was approved by the institutional review boards or ethics committees of all participating sites. All patients provided written informed consent to participate before enrollment. […]
# HBI-8000 at three dose levels (20 mg, 30 mg, and 40 mg) given orally twice a week (BIW) were evaluated. Doses were taken approximate 30 minutes after a meal. The starting dose (20 mg) was selected based on pharmacokinetic profiles established for monotherapy in Japanese patients with T-cell lymphoma.
# The decision to escalate the dose was based on the conventional 3+3 design and observed incidences of dose-limiting toxicities (DLTs). Each treatment cycle was defined as 28 days. […] Subjects experiencing DLT within the first two weeks after having received 100% of assigned dose of HBI-8000 are also evaluable for DLT. Unacceptable toxicities were defined as grade 3 or higher non-hematologic and hematologic toxicities with clinical complications. Unacceptable toxicities observed over the first 28 days following HBI-8000 administration were considered as DLTs. […] HBI-8000 administration continued until disease progression or unacceptable toxicity was observed. The efficacy of the combination was further evaluated in an expanded cohort of selected patient populations at RP2D based on an objective response rate according to Response Evaluation Criteria in Solid Tumors (RECIST) version 1.1 criteria, progression-free survival, and duration of responses.
# Safety evaluations included physical examinations, vital signs, ECGs, ECOG performance status, and laboratory tests.
# Statistical analyses of safety, tolerability, and anti-tumor activity were primarily descriptive in nature. Toxicities were tabulated by type and grade. The safety population included all patients who received ≥1 dose of HBI-8000 and nivolumab. Continuous variables were summarized using descriptive statistics and categorical variables were summarized with number and percentage at each category. Pharmacokinetic parameters were derived using noncompartmental methods with Phoenix® WinNonlin® Version 6.4 (Certara, L. P., Princeton, NJ, USA).
# [1] = 40 mg HBI-8000 BIW + nivolumab, N = 7
# [2] = 20, 30 and 40 mg HBI-8000 + nivolumab, N = 17
smiles,measurement,setting,value
"Nc1cc(F)ccc1NC(=O)c1ccc(CNC(=O)/C=C/c2cccnc2)cc1 [HBI-8000, N-(2-amino-4-fluorophenyl)-4-[[[(2E)-1-oxo-3-(3-pyridinyl)-2-propen-1-yl]amino]methyl]benzamide]","Any SAE, number of subjects",[1],4 n
same,"Any TEAE, number of subjects",[1],7 n
same,"Aspartate aminotransferase increased, All, G < 3",[1],1 (14) n (%)
same,"Aspartate aminotransferase increased, Related Both, Any G",[1],1 (14) n (%)
same,"Atrial fibrillation, All, G < 3",[1],2 (29) n (%)
same,"Atrial fibrillation, All, G ≥ 3",[1],1 (14) n (%)
same,"Atrial fibrillation, Related Both, Any G",[1],1 (14) n (%)
same,"Contusion, All, G < 3",[1],3 (43) n (%)
same,"Contusion, Related Both, Any G",[1],2 (29) n (%)
same,"Contusion, Related HBI, Any G",[1],1 (14) n (%)
same,"Decreased appetite, All, G < 3",[1],3 (43) n (%)
same,"Decreased appetite, All, G ≥ 3",[1],1 (14) n (%)
same,"Decreased appetite, Related Both, Any G",[1],1 (14) n (%)
same,"Decreased appetite, Related HBI, Any G",[1],2 (29) n (%)
same,"Dehydration, All, G < 3",[1],2 (29) n (%)
same,"Diarrhoea, All, G < 3",[1],2 (29) n (%)
same,"Diarrhoea, All, G ≥ 3",[1],1 (14) n (%)
same,"Diarrhoea, Related Both, Any G",[1],2 (29) n (%)
same,"Diarrhoea, Related HBI, Any G",[1],1 (14) n (%)
same,"Dizziness, All, G < 3",[1],2 (29) n (%)
same,"Dizziness, Related Both, Any G",[1],1 (14) n (%)
same,"Dizziness, Related HBI, Any G",[1],1 (14) n (%)
same,"Dyspnoea, All, G < 3",[1],3 (43) n (%)
same,"Dyspnoea, All, G ≥ 3",[1],1 (14) n (%)
same,"Dyspnoea, Related Both, Any G",[1],1 (14) n (%)
same,"Fall, All, G < 3",[1],2 (29) n (%)
same,"Fatigue, All, G < 3",[1],2 (29) n (%)
same,"Fatigue, All, G ≥ 3",[1],2 (29) n (%)
same,"Fatigue, Related Both, Any G",[1],2 (29) n (%)
same,"Fatigue, Related HBI, Any G",[1],1 (14) n (%)
same,"Headache, All, G < 3",[1],1 (14) n (%)
same,"Headache, All, G ≥ 3",[1],1 (14) n (%)
same,"Headache, Related Both, Any G",[1],1 (14) n (%)
same,"Headache, Related HBI, Any G",[1],1 (14) n (%)
same,"Hypocalcaemia, All, G < 3",[1],2 (29) n (%)
same,"Hypocalcaemia, Related Both, Any G",[1],1 (14) n (%)
same,"Hypocalcaemia, Related HBI, Any G",[1],1 (14) n (%)
same,"Hypokalemia, All, G < 3",[1],1 (14) n (%)
same,"Hypokalemia, Related Both, Any G",[1],1 (14) n (%)
same,"Hypophosphataemia, All, G < 3",[1],2 (29) n (%)
same,"Hypophosphataemia, Related Both, Any G",[1],1 (14) n (%)
same,"Hypophosphataemia, Related HBI, Any G",[1],1 (14) n (%)
same,"Hypotension, All, G < 3",[1],3 (43) n (%)
same,"Hypotension, Related Both, Any G",[1],1 (14) n (%)
same,"Lipase increased, All, G < 3",[1],1 (14) n (%)
same,"Lipase increased, Related Both, Any G",[1],1 (14) n (%)
same,"Lymphocyte count decreased, All, G < 3",[1],2 (29) n (%)
same,"Lymphocyte count decreased, Related Both, Any G",[1],2 (29) n (%)
same,"Nausea, All, G < 3",[1],3 (43) n (%)
same,"Nausea, Related Both, Any G",[1],2 (29) n (%)
same,"Nausea, Related HBI, Any G",[1],2 (29) n (%)
same,"Neutrophil count decreased, All, G < 3",[1],2 (29) n (%)
same,"Neutrophil count decreased, All, G ≥ 3",[1],1 (14) n (%)
same,"Neutrophil count decreased, Related Both, Any G",[1],1 (14) n (%)
same,"Neutrophil count decreased, Related HBI, Any G",[1],1 (14) n (%)
same,"Non-cardiac chest pain, All, G < 3",[1],2 (29) n (%)
same,"Non-cardiac chest pain, Related HBI, Any G",[1],1 (14) n (%)
same,"Oedema peripheral, All, G < 3",[1],2 (29) n (%)
same,"Oedema peripheral, Related Both, Any G",[1],1 (14) n (%)
same,"Platelet count decreased, All, G < 3",[1],3 (43) n (%)
same,"Platelet count decreased, Related Both, Any G",[1],1 (14) n (%)
same,"Platelet count decreased, Related HBI, Any G",[1],2 (29) n (%)
same,"Pleural effusion, All, G < 3",[1],2 (29) n (%)
same,"SAE related to HBI-8000 & Nivolumab, number of subjects",[1],0 n
same,"SAE related to HBI-8000 alone, number of subjects",[1],0 n
same,"TEAE related to HBI-8000 & Nivolumab, number of subjects",[1],3 n
same,"TEAE related to HBI-8000 alone, number of subjects",[1],6 n
same,"TEAE resulting in discontinuation of HBI-8000 alone, number of subjects",[1],2 n
same,"TEAE resulting in discontinuation of both HBI-8000 and Nivo, number of subjects",[1],2 n
same,"Vomiting, All, G < 3",[1],2 (29) n (%)
same,"Vomiting, Related Both, Any G",[1],2 (29) n (%)
same,"Weight decreased, All, G < 3",[1],1 (14) n (%)
same,"Weight decreased, Related Both, Any G",[1],1 (14) n (%)
same,"White blood cell count decreased, All, G < 3",[1],3 (43) n (%)
same,"White blood cell count decreased, Related Both, Any G",[1],1 (14) n (%)
same,"White blood cell count decreased, Related HBI, Any G",[1],2 (29) n (%)
same,Incidence of TEAE related to HBI-8000 alone versus dose,"20, 30, 40 mg BIW + nivolumab",appeared to increase with escalating HBI-8000 dose
same,"Alanine aminotransferase increased, Total",[2],4 (24) n (%)
same,"Anaemia, Total",[2],8 (47) n (%)
same,"Aspartate aminotransferase increased, Total",[2],4 (24) n (%)
same,"Atrial fibrillation, Total",[2],4 (24) n (%)
same,"Back pain, Total",[2],4 (24) n (%)
same,"Contusion, Total",[2],4 (24) n (%)
same,"Decreased appetite, Total",[2],9 (53) n (%)
same,"Dehydration, Total",[2],5 (29) n (%)
same,"Diarrhoea, Total",[2],7 (41) n (%)
same,"Dizziness, Total",[2],5 (29) n (%)
same,"Dyspnoea, Total",[2],9 (53) n (%)
same,"Fall, Total",[2],4 (24) n (%)
same,"Fatigue, Total",[2],10 (59) n (%)
same,"Headache, Total",[2],4 (24) n (%)
same,"Hypocalcaemia, Total",[2],6 (35) n (%)
same,"Hypokalemia, Total",[2],5 (29) n (%)
same,"Hypophosphataemia, Total",[2],5 (29) n (%)
same,"Hypotension, Total",[2],5 (29) n (%)
same,"Hypoxia, Total",[2],4 (24) n (%)
same,"Lipase increased, Total",[2],5 (29) n (%)
same,"Lymphocyte count decreased, Total",[2],5 (29) n (%)
same,"Nausea, Total",[2],8 (47) n (%)
same,"Neutrophil count decreased, Total",[2],4 (24) n (%)
same,"Non-cardiac chest pain, Total",[2],4 (24) n (%)
same,"Oedema peripheral, Total",[2],7 (41) n (%)
same,"Platelet count decreased, Total",[2],7 (41) n (%)
same,"Pleural effusion, Total",[2],5 (29) n (%)
same,"Vomiting, Total",[2],4 (24) n (%)
same,"Weight decreased, Total",[2],7 (41) n (%)
same,"White blood cell count decreased, Total",[2],5 (29) n (%)
same,Dose-limiting toxicity (DLT),"20-mg dose cohort, 3 DLT-evaluable patients",None
same,Dose-limiting toxicity (DLT),"30-mg BIW dose cohort, 3 + 3 DLT-evaluable patients",None and No DLT
same,Patients with DLT: Grade 3 fatigue on days of HBI-8000 administration,"40-mg cohort, 6 DLT-evaluable patients, RCC patient",1 patient
same,Patients with DLT: Grade 3 headache after first dose and grade 3 diarrhea after third dose,"40-mg cohort, 6 DLT-evaluable patients, melanoma patient",1 patient
same,"Any SAE, number of subjects","Total, all dose levels, N = 17",11 n
same,"Any TEAE, number of subjects","Total, all dose levels, N = 17",17 n
same,"TEAE related to HBI-8000 & Nivolumab, number of subjects","Total, all dose levels, N = 17",11 n
same,"TEAE related to HBI-8000 alone, number of subjects","Total, all dose levels, N = 17",10 n
same,"TEAE resulting in discontinuation of HBI-8000 alone, number of subjects","Total, all dose levels, N = 17",5 n
same,"TEAE resulting in discontinuation of both HBI-8000 and Nivo, number of subjects","Total, all dose levels, N = 17",3 n
same,Patients who died of TEAE (unrelated to HBI-8000 or nivolumab),"all dose levels, N = 17",One
same,Patients with Grade 3 or higher TEAEs,"all dose levels, N = 17",15 patients
same,Patients with only Grade 1 and 2 TEAEs,"all dose levels, N = 17",Two
same,Subjects with TEAEs attributed to the combination and TEAEs associated with HBI-8000 alone,"all dose levels, N = 17",Six
same,Recommended phase II dose (RP2D),in combination with nivolumab,30 mg BIW
same,Maximum tolerated dose (MTD),oral BIW in combination with nivolumab,< 40 mg

# Reference: patent US20240252474A1, “METHODS AND COMPOSITIONS COMPRISING A CARDIO-TOLERATED HDAC INHIBITOR” (HUYABIO International, LLC, priority 2023, published 2024)
